Laboratory results as given in ChEMBL document CHEMBL1136192, “Cyclin-dependent kinase 4 inhibitors as a treatment for cancer. Part 2: identification and optimisation of substituted 2,4-bis anilino pyrimidines” (Bioorg Med Chem Lett, 2003).

Columns and labels:
[1] = target: Cyclin-dependent kinase 2 (Homo sapiens, UniProt P24941); test: Inhibitory concentration against cyclin-dependent kinase 2
[2] = target: Cyclin-dependent kinase 4 (Homo sapiens, UniProt P11802); test: Inhibitory concentration against cyclin-dependent kinase 4
Sequence of Cyclin-dependent kinase 4 (P11802 whole entry): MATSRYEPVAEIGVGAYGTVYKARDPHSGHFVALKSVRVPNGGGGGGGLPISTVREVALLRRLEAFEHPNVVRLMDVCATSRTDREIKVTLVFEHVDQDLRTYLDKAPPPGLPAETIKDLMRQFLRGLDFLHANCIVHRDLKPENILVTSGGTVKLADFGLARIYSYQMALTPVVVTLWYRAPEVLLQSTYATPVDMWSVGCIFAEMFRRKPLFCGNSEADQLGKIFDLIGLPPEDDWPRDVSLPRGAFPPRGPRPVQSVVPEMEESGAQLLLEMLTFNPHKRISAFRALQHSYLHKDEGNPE

| Compound | IC50 [1] [µM] | IC50 [2] [µM] |
| --- | --- | --- |
| C#CCN(c1ccnc(Nc2ccc(OCC(O)CN(C)C)cc2)n1)c1cc(Cl)ccc1Cl (stereo not drawn) | 2 | 0.2 |
| CN(C)CC(O)COc1ccc(Nc2nccc(Nc3ccccc3)n2)cc1 (stereo not drawn) | 34 | 2 |
| CN(C)CC(O)COc1ccc(Nc2nccc(Nc3ccccc3F)n2)cc1 (stereo not drawn) | 7 | 1 |
| CN(C)CC(O)COc1ccc(Nc2nccc(Nc3ccccc3Br)n2)cc1 (stereo not drawn) | 7 | 1 |
| CN(C)CC(O)COc1ccc(Nc2nccc(N(Cc3ccccc3)c3cc(Cl)ccc3Cl)n2)cc1 (stereo not drawn) | > 10 | 1 |
| CN(C)CC(O)COc1ccc(Nc2nccc(N(CCCC(F)(F)F)c3cc(Cl)ccc3Cl)n2)cc1 (stereo not drawn) | 12 | 0.2 |
| CN(C)CC(O)COc1ccc(Nc2nccc(Nc3cc(C(F)(F)F)ccc3F)n2)cc1 (stereo not drawn) | 1 | 0.6 |
| CN(C)CC(O)COc1ccc(Nc2cc(Nc3ccc(Cl)cc3)ncn2)cc1 (stereo not drawn) | > 100 | 41 |
| CN(C)CC(O)COc1ccc(Nc2nccc(Nc3ccccc3C#N)n2)cc1 (stereo not drawn) | 4 | 2 |
| Cc1ccc(Nc2ccnc(Nc3ccc(OCC(O)CN(C)C)cc3)n2)cc1 (stereo not drawn) | 26 | 2 |
| COc1ccc(Nc2cc(Nc3ccc(OCC(O)CN(C)C)cc3)ncn2)cc1 (stereo not drawn) | > 100 | 57 |
| CN(C)CC(O)COc1ccc(Nc2ncc(Br)c(N(CCCC(F)(F)F)c3ccccc3)n2)cc1 (stereo not drawn) | 0.2 | 0.01 |
| COc1ccccc1Nc1ccnc(Nc2ccc(OCC(O)CN(C)C)cc2)n1 (stereo not drawn) | 15 | 19 |
| Cc1ccc(Cl)c(Nc2ccnc(Nc3ccc(OCC(O)CN(C)C)cc3)n2)c1 (stereo not drawn) | 5 | 2 |
| CN(C)CC(O)COc1ccc(Nc2nccc(N(CCC#N)c3cc(Cl)ccc3Cl)n2)cc1 (stereo not drawn) | 3 | 0.3 |
| CN(C)CC(O)COc1ccc(Nc2nccc(Nc3cc(Cl)ccc3Cl)n2)cc1 (stereo not drawn) | 1 | 0.8 |
| CN(C)CC(O)COc1ccc(Nc2ncc(F)c(Nc3ccccc3)n2)cc1 (stereo not drawn) | > 10 | 0.3 |
| Cc1cnc(Nc2ccc(OCC(O)CN(C)C)cc2)nc1Nc1ccccc1 (stereo not drawn) | 8 | 0.8 |
| CN(C)CC(O)COc1ccc(Nc2nccc(Nc3ccc(Cl)cc3)n2)cc1 (stereo not drawn) | 18 | 1 |
| Cc1ccc(Cl)c(Nc2cc(Nc3ccc(OCC(O)CN(C)C)cc3)ncn2)c1 (stereo not drawn) | 22 | 2 |
| COc1ccc(Nc2ccnc(Nc3ccc(OCC(O)CN(C)C)cc3)n2)cc1 (stereo not drawn) | 36 | 2 |
| CN(C)CC(O)COc1ccc(Nc2nccc(N(CC#N)c3cc(Cl)ccc3Cl)n2)cc1 (stereo not drawn) | 0.7 | 0.1 |
| CN(C)CC(O)COc1ccc(Nc2ncc(Cl)c(Nc3ccccc3)n2)cc1 (stereo not drawn) | 0.5 | 0.1 |
| CN(C)CC(O)COc1ccc(Nc2ncc(Br)c(Nc3ccccc3)n2)cc1 (stereo not drawn) | 0.3 | 0.1 |
| CN(C)CC(O)COc1ccc(Nc2nccc(Nc3cccc(Cl)c3)n2)cc1 (stereo not drawn) | 5 | 2 |
| Cc1ccc(Nc2cc(Nc3ccc(OCC(O)CN(C)C)cc3)ncn2)cc1 (stereo not drawn) | > 100 | 25 |
| Cc1ccc(F)c(Nc2ccnc(Nc3ccc(OCC(O)CN(C)C)cc3)n2)c1 (stereo not drawn) | 2 | 0.7 |
| Cc1ccc(F)c(Nc2cc(Nc3ccc(OCC(O)CN(C)C)cc3)ncn2)c1 (stereo not drawn) | 81 | 4 |
| CN(C)CC(O)COc1ccc(Nc2nccc(Nc3ccccc3Cl)n2)cc1 (stereo not drawn) | 6 | 1 |
